Test results taken from US10617735B2, “Methods and compositions for preserving retinal ganglion cells” (Massachusetts Eye and Ear Infirmary, priority 2010, dated 2020).
Where a SMILES comes first, the peptide text is derived from it. The star is where a group is joined. Cbz = O=C(OCc1ccccc1)*; CH2F = FC*

How the values were obtained:
Type in all cases: in vivo, mouse
[1] = test system: retinal ganglion cells (RGCs); assay: IPL thickness and GCL with IPL thickness after ON injury (immunohistochemistry, SD-OCT); settings: RIP3−/− mice; one week after ON injury
Method: An anti-TNF-α neutralizing antibody (0.1 mg/ml) or a control antibody was injected into the vitreous of mice that underwent ON injury. One week following injection, the number of RGCs were measured. In addition, inner plexiform layer (IPL) thickness (a location of RGC axons) was also assessed. Specifically, eyes were enucleated and RGC loss was quantified from histological sections of mouse retina. Only transverse sections involving the optic disc were used for analysis and the fields corresponding to approximately 400 μm of both sides of retina extending from the ON head (2 points/section×3 sections per eye, n=6) were examined with an optical microscope (×40 objectives). IPL thickness was measured with OpenLab software (Open Lab, Florence, Italy) (2 points/section×3 sections per eye, n=6). The ratio of IPL thickness was calculated as a percentage of IPL thickness in the normal mouse eyes (n=6).
Inner plexiform layer (IPL) thickness and ganglion cell layer (GCL) with IPL thickness (location of RGC cell bodies and axons) were measured using immunohistochemistry and a Spectral Domain Optical Coherence Tomography (SD-OCT) system (Bioptigen Inc., Durham, N.C.). […] The thickness of GCL+IPL was assessed at 500 μm, 400 μm, 300 μm distance from the ON head (nasally and temporally) as well as at 200 μm, 400 μm above and below the ON head.

[2] = test system: retinal ganglion cells (RGCs); assay: Transmission electron microscopy (TEM) quantification of apoptotic and necrotic RGC death after ON injury
Method: In addition, the morphology of RGC death was assessed by transmission electron microscopy (TEM) as previously described (Trichonas et al., (2010) PROC NATL ACAD SCI USA)). Specifically, the eyes were enucleated, and the posterior segments were fixed in 2.5% glutaraldehyde and 2% paraformaldehyde in 0.1 M cacodylate buffer with 0.08 M CaCl2 at 4° C. The eyes were post-fixed for 1.5 hours in 2% aqueous OsO4, dehydrated in ethanol and water, and embedded in EPON. Ultrathin sections were cut from blocks and stained with saturated, aqueous uranyl acetate and Sato's lead stain. […] More than 50 RGCs per eye were photographed and subjected to quantification of cell death in a masked fashion. RGCs showing cellular shrinkage and nuclear condensation were defined as apoptotic cells, and RGCs associated with cellular and organelle swelling and discontinuities in nuclear and plasma membrane were defined as necrotic cells. Electron dense granular materials were labeled simply as end-stage unclassified cell death. Autophagosome was defined as a double- or multi-membraned structure containing cytoplasmic material and/or organelles, and autolysosome was defined as cytoplasmic vesicle containing electron dense degraded material, as previously described (Eskelinen, 2008).
RGC death was categorized into apoptosis, necrosis and unclassified end-stage of death, as previously described (Trichonas et al., (2010) PROC NATL ACAD SCI USA). […] Co-administration of ZVAD and Nec-1 led to a substantial decrease of both apoptotic and necrotic RGC death (% apoptotic cells: 4.2±5.1%, necrotic cells: 9.8±6.6%, unclassified: 1.8±1.8%, P<0.01; FIGS. 4C and 4D).
To identify the RGC death mode seen after ON injury transmission electron microscopy (TEM) studies was performed as previously described. RGCs that were unable to be classified were defined as end-stage cell death/unclassified. […] RGCs contained tubular sacs of rough endoplasmic reticulum (rER) surrounded by large numbers of ribosomes (Nissl bodies). Mitochondria were identified as round or oval double-membrane structures with characteristic cristae. In addition, the cytoplasm contained elements of Golgi apparatus (GA), free ribosomes and microtubules sectioned at various angles. A large round nucleus, surrounded by a double-layered nuclear membrane, contained homogeneously dispersed karyoplasm (chromatin material) and one or two electron dense nucleoli (FIG. 8A) (Saggu et al., (2010) BMC NEUROSCI 11:97)). After ON injury, RGC death through apoptosis was predominant.

[3] = test system: ROS; assay: Protein carbonyl contents in retina after ON injury (ELISA); settings: one day after ON injury; compared with vehicle group
Method: It has been reported that RIP kinases control ROS generation during programmed necrosis (Cho et. al., (2009) CELL 137:1112-1123, Zhang et al., (2009) SCIENCE 325:332-336)). To investigate whether ROS play a roll in oxidative retinal damage after ON injury, protein level of carbonyl contents was analyzed using ELISA using the OxiSelect™ Protein Carbonyl ELISA Kit (Cell Biolabs, San Diego, Calif.).
To investigate the role of autophagy in RGC death after ON injury, we examined the effect of 3-methyladenine (3-MA) on RGCs death after ON injury. 3-MA inhibits autophagosome formation (Seglen and Gordon, (1982) PROC NATL ACAD SCI USA 79:1889-1892)). One day after ON injury, TUNEL assay was performed. […] In addition, the number of Brn3b positive cells and IPL thickness were also analyzed. […] To investigate whether ROS play a role in oxidative retinal damage after ON injury, protein level of carbonyl contents was analyzed using an ELISA kit (Cell Biolabs, San Diego, Calif.) according to the manufacturer's instructions. One day after ON injury, carbonyl contents decreased in the 3-MA treated group compared with untreated control (FIG. 10F).

[4] = one day after ON injury, mean±SD

COC(=O)CC(NC(=O)C(C)NC(=O)C(NC(=O)OCc1ccccc1)C(C)C)C(=O)CF (stereo not drawn) [Z-VAD, Benzyloxycarbonyl-Val-Ala-Asp(OMe)-fluoromethylketone] (Cbz-Val-Ala-Asp(OMe)-CH2F; configuration not given here)
IPL thickness [1]: preservation of IPL thickness | mode of RGC death, apoptotic versus necrotic (TEM) ([2]; after ON injury): blocked apoptotic cell death and sensitized cells to necrotic cell death | apoptotic cells (RGC death, TEM) [2, 4]: 5.6±3.4% | necrotic cells (RGC death, TEM) [2, 4]: 30.7±4.9% | unclassified end-stage of death (TEM) [2, 4]: 3.4±2.3% | carbonyl contents (protein level, ELISA) [3]: dramatically increased
